# Measured values published in patent publication US4359466A, “Guanidine compounds” (Smith Kline & French Laboratories Limited, priority 1980, dated 1982).
# Test system: histamine H2 -receptors
# Assay: inhibition of histamine-stimulated secretion of gastric acid from the lumen-perfused stomachs of rats anaesthetised with urethane
# Type: in vivo
# Conditions: i.v., lumen-perfused stomach of urethane-anaesthetised rats
smiles,measurement,value
"N=C(N)Nc1nc(CSCCNc2[nH]ccc2[N+](=O)[O-])cs1 [Example 1, 2-[2-(2-Guanidino-4-thiazolylmethylthio)ethylamino]-3-nitropyrrole]",dose causing 50% inhibition of maximal acid secretion,less than 0.1 micromole kg^-1
